Measurements from patent EP0908457B1, “3-(1,2-benzisothiazol- and isoxazol-5-Y1)-2,4(1H,3H)-pyrimidinedione or thione and 3-(1,2-benzisothiazol- and isoxazol-5-y1)-4(3H)-pyrimidinone or thione herbicidal agents” (BASF AKTIENGESELLSCHAFT, priority 1997, dated 1999).
Where “and” joins values, the source holds several entries; their conditions need not be identical. Equal values may be shown once.

Key:
Format in all cases: in vivo
Cyperus iria = test: Preemergence weed control under flooded paddy conditions, CYPIR (Rice Flatsedge); conditions: preemergence weeds, flooded paddy, herbicidal effect rating 0-9, three to four weeks after treatment
[1] = tested on: Cyperus serotinus, Rottb.; test: Preemergence weed control under flooded paddy conditions, CYPSE (Flatsedge); conditions: preemergence weeds, herbicidal effect rating 0-9, three to four weeks after treatment
[2] = tested on: Echinochloa oryzoides (Ard.) Fritsch.; test: Preemergence weed control under flooded paddy conditions, ECHORC (Watergrass (Calif.)); conditions: for ECHORC: preemergence weeds, herbicidal effect rating 0-9, three to four weeks after treatment; as to herbicidal effect rating, ECHORC: meaning of each grade not given here
[3] = tested on: Monochoria vaginalis, Presl.; test: Preemergence weed control under flooded paddy conditions, MOOVA (Monochoria); conditions: for MOOVA: preemergence weeds, flooded paddy, herbicidal effect rating 0-9, three to four weeks after treatment; as to herbicidal effect rating, MOOVA: meaning of each grade not given here
Sagittaria pygmaea, L. = test: Preemergence weed control under flooded paddy conditions, SAGPY (Arrowhead (Pygmaea)); conditions: for SAGPY: preemergence weeds, flooded paddy, herbicidal effect rating 0-9, three to four weeks after treatment; as to herbicidal effect rating, SAGPY: meaning of each grade not given here

Compound | CYPIR (Cyperus iria; 0.0320 kg/ha) | CYPIR (Cyperus iria; 0.0620 kg/ha) | CYPIR (Cyperus iria; 0.1250 kg/ha) | CYPIR (Cyperus iria; 0.2500 kg/ha) | CYPSE ([1]; 0.0320 kg/ha) | CYPSE ([1]; 0.0620 kg/ha) | CYPSE ([1]; 0.1250 kg/ha) | CYPSE ([1]; 0.2500 kg/ha) | ECHORC ([2]; 0.0320 kg/ha, flooded paddy) | ECHORC ([2]; 0.0620 kg/ha, flooded paddy) | ECHORC ([2]; 0.1250 kg/ha, flooded paddy) | ECHORC ([2]; 0.2500 kg/ha, flooded paddy) | MOOVA ([3]; 0.0620 kg/ha) | MOOVA ([3]; 0.1250 kg/ha) | MOOVA ([3]; 0.2500 kg/ha) | further results
CC(OS(=O)(=O)C(C)C)c1nsc2ccc(-n3c(=O)cc(C(F)(F)F)n(C)c3=O)cc12 (stereo not shown) [Example 413, 2,4(1H,3H)-Pyrimidinedione, 3-[3-(1-hydroxyethyl)-1,2-benzisothiazol-5-yl]-1-methyl-6-(trifluoromethyl)-, 1-methylethanesulfonate (ester)] | 0.0 | 2.0 | 5.0 | 7.0 | 0.0 | 3.0 | 5.0 | 9.0 | 0.0 | 0.0 | 0.0 | 6.0 | 9.0 | 9.0 | 9.0 | MOOVA ([3]; 0.0320 kg/ha): 7.0
COC(=O)[C@@H](C)Oc1ccc(C)cc1-c1nsc2ccc(-n3c(=O)cc(C(F)(F)F)n(C)c3=O)cc12 [Example 14, Methyl 2-{{2-{5-[3,6-dihydro-3-methyl-2,6-dioxo-4-(trifluoromethyl)-1(2H)-pyrimidinyl]-1,2-benzisothiazol-3-yl}-p-tolyl}oxy}propionate, (R)-] |  |  |  |  |  |  |  |  |  |  |  |  |  |  |  | herbicidal effect rating, ECHORC ([2]; in vivo): 7.5 and 6.5 and 5.0 and 4.0; herbicidal effect rating, SAGPY (Sagittaria pygmaea, L.; in vivo): 0.0; herbicidal effect rating, MOOVA ([3]; in vivo): 9.0
CCCCS(=O)(=O)OC(C)c1nsc2ccc(-n3c(=O)cc(C(F)(F)F)n(C)c3=O)cc12 (stereo not shown) [Example 414, 2,4(1H,3H)-Pyrimidinedione, 3-[3-(1-hydroxyethyl)-1,2-benzisothiazol-5-yl]-1-methyl-6-(trifluoromethyl)-, butanesulfonate (ester)] | 0.0 | 2.0 | 6.0 | 9.0 | 0.0 |  |  | 9.0 | 0.0 | 0.0 | 2.0 | 7.0 | 7.0 | 7.0 | 7.0 | 
Cc1ccc(OC(C)C(=O)[O-])c(-c2nsc3ccc(-n4c(=O)cc(C(F)(F)F)n(C)c4=O)cc23)c1.[Na+] (racemic) [Example 82, Sodium 2-{{2-{5-[3,6-dihydro-3-methyl-2,6-dioxo-4-(trifluoromethyl)-1(2H)-pyrimidinyl]-1,2-benzisothiazol-3-yl}-p-tolyl}oxy}propionate, DL-] |  |  |  |  |  |  |  |  |  |  |  |  |  |  |  | herbicidal effect rating, ECHORC ([2]; 0.0313 kg/ha, preemergence, flooded paddy, rated three to four weeks after treatment): 9.0; herbicidal effect rating, ECHORC ([2]; 0.0625 kg/ha, preemergence, flooded paddy, rated three to four weeks after treatment): 9.0; herbicidal effect rating, ECHORC ([2]; 0.1250 kg/ha, preemergence, flooded paddy, rated three to four weeks after treatment): 9.0; herbicidal effect rating, ECHORC ([2]; 0.2500 kg/ha, preemergence, flooded paddy, rated three to four weeks after treatment): 9.0
Cn1c(C(F)(F)F)cc(=O)n(-c2ccc3snc(C(SCCO)SCCO)c3c2)c1=O [Example 419, 1,2-Benzisothiazole-3-carboxaldehyde, 5-[3,6-dihydro-3-methyl-2,6-dioxo-4-(trifluoromethyl)-1(2H)-pyrimidinyl]-, 3-[bis(2-hydroxyethyl)dithioacetal]] |  | 0.0 | 3.0 | 6.0 |  | 0.0 | 0.0 | 0.0 |  | 0.0 | 2.0 | 7.0 | 0.0 | 4.0 | 5.0 | 
CC(=O)OCCCSC(SCCCOC(C)=O)c1nsc2ccc(-n3c(=O)cc(C(F)(F)F)n(C)c3=O)cc12 [Example 426, 1,2-Benzisothiazole-3-carboxaldehyde, 5-[3,6-dihydro-3-methyl-2,6-dioxo-4-(trifluoromethyl)-1(2H)-pyrimidinyl]-, 3-[bis(3-hydroxypropyl)dithioacetal], diacetate (diester)] | 5.0 | 7.0 | 7.0 | 9.0 | 0.0 | 0.0 | 0.0 | 2.0 | 5.0 | 5.0 | 5.0 | 9.0 |  |  |  | SAGPY (Sagittaria pygmaea, L.; 0.0320 kg/ha): 0.0; SAGPY (Sagittaria pygmaea, L.; 0.0620 kg/ha): 2.0; SAGPY (Sagittaria pygmaea, L.; 0.1250 kg/ha): 4.0; SAGPY (Sagittaria pygmaea, L.; 0.2500 kg/ha): 4.0
